Read-outs that look alike come from different tables or passages of the source.
How the values were obtained:
Format in all cases: cell-based
[1] = system: P. aeruginosa (ATCC 15442); assay: Minimal bactericidal concentration, serial 2-fold dilution
Description: (§1) The minimal bactericidal concentration (MBC) of benzalkonium chloride was determined against S. aureus (ATCC 6538), P. aeruginosa (ATCC 15442), and E. coli (ATCC BAA 1427) by serial 2-fold dilution experiments. A solution of chlorhexidine (0.025% w/w) was used as a positive control and comparator.

E. coli (ATCC BAA 1427) [2] = assay: as above
Description: as §1

S. aureus (ATCC 6538) [3] = assay: as above
Description: as §1

[4] = system: P. aeruginosa (ATCC 15442); assay: Minimum inhibitory concentration / growth inhibition, serial 2-fold dilution
Description: as §1, with “inhibitory” for “bactericidal”, “(MIC, the minimum inhibitory concentration required for 90% growth reduction)” for “(MBC)”

E. coli (ATCC BAA 1427) [5] = assay: as above
Description: as §1, with “inhibitory” for “bactericidal”, “(MIC, the minimum inhibitory concentration required for 90% growth reduction)” for “(MBC)”

S. aureus (ATCC 6538) [6] = assay: as above
Description: as §1, with “inhibitory” for “bactericidal”, “(MIC, the minimum inhibitory concentration required for 90% growth reduction)” for “(MBC)”

S. aureus = assay: Chequerboard assay, FIC and synergy analysis; details: for MIC: Staphylococcus aureus
Description: (§2) Chlorhexidine gluconate (CHG) and benzalkonium chloride (BZK) were analyzed by chequerboard assay with each test organism to determine potential additive, synergistic, antagonistic activity. The test organisms S. aureus, P. aeruginosa, and E. coli were tested at ranges of chlorhexidine gluconate (0.122-15.625 μg/mL, 1.25-160 μg/mL, and […], respectively) and benzalkonium chloride (0.029-3.75 μg/mL, 0.4688-60 μg/mL, and 0.2344-30 μg/mL, respectively). The results of the chequerboard experiment are shown in Table X. FIC was calculated by the following Equation 2: […]

P. aeruginosa = assay: Chequerboard assay, FIC and synergy analysis; details: for MIC: Pseudomonas aeruginosa
Description: as §2

E. coli = assay: Chequerboard assay, FIC and synergy analysis; details: for MIC: Escherichia coli
Description: as §2

[7] = concentration 0.46875 μg/mL, average of triplicate
[8] = concentration 0.9375 μg/mL, average of triplicate
[9] = concentration 1.875 μg/mL, average of triplicate
[10] = concentration 3.75 μg/mL, average of triplicate
[11] = concentration 7.5 μg/mL, average of triplicate
[12] = concentration 15 μg/mL, average of triplicate
[13] = concentration 30 μg/mL, average of triplicate
[14] = concentration 60 μg/mL, average of triplicate
[15] = serial 2-fold dilution, triplicate
[16] = concentration 0.46875 μg/mL, triplicate
[17] = concentration 0.9375 μg/mL, triplicate
[18] = concentration 1.875 μg/mL, triplicate
[19] = concentration 3.75 μg/mL, triplicate
[20] = concentration 7.5 μg/mL, triplicate
[21] = concentration 15 μg/mL, triplicate
[22] = concentration 30 μg/mL, triplicate
[23] = concentration 60 μg/mL, triplicate
[24] = concentration 250 μg/mL (0.025% w/w), positive control
[25] = concentration 250 μg/mL (0.025% w/w), positive control, listed as chlorhexidine
[26] = concentration 250 μg/mL, positive control
[27] = read-out: MIC of CHG in Presence of BZK

Benzalkonium chloride
CFU/mL ([1]; concentration 0.46875 μg/mL): Lawn
Number of Colonies [1, 7]: Lawn (‘Lawn’ indicates too many colonies to accurately count (e.g., greater than 250 colonies on an agar plate))
CFU/mL ([1]; concentration 0.9375 μg/mL): Lawn
Number of Colonies [1, 8]: Lawn (‘Lawn’ indicates too many colonies to accurately count (e.g., greater than 250 colonies on an agar plate))
CFU/mL ([1]; concentration 1.875 μg/mL): Lawn
Number of Colonies [1, 9]: Lawn (‘Lawn’ indicates too many colonies to accurately count (e.g., greater than 250 colonies on an agar plate))
CFU/mL ([1]; concentration 3.75 μg/mL): Lawn
Number of Colonies [1, 10]: Lawn (‘Lawn’ indicates too many colonies to accurately count (e.g., greater than 250 colonies on an agar plate))
CFU/mL ([1]; concentration 7.5 μg/mL): Lawn
Number of Colonies [1, 11]: Lawn (‘Lawn’ indicates too many colonies to accurately count (e.g., greater than 250 colonies on an agar plate))
CFU/mL ([1]; concentration 15 μg/mL): Lawn
Number of Colonies [1, 12]: Lawn (‘Lawn’ indicates too many colonies to accurately count (e.g., greater than 250 colonies on an agar plate))
CFU/mL ([1]; concentration 30 μg/mL): Lawn
Number of Colonies [1, 13]: Lawn (‘Lawn’ indicates too many colonies to accurately count (e.g., greater than 250 colonies on an agar plate))
CFU/mL ([1]; concentration 60 μg/mL): 166.67 CFU/mL
Number of Colonies [1, 14]: 1.6667
MBC (defined as having less than 500 CFU/mL) [1, 15]: 60 µg/mL
CFU/mL (E. coli (ATCC BAA 1427) [2]; concentration 0.46875 μg/mL): Lawn
Number of Colonies (E. coli (ATCC BAA 1427) [2]; [7]): Lawn (‘Lawn’ indicates too many colonies to accurately count (e.g., greater than 250 colonies on an agar plate))
CFU/mL (E. coli (ATCC BAA 1427) [2]; concentration 0.9375 μg/mL): Lawn
Number of Colonies (E. coli (ATCC BAA 1427) [2]; [8]): Lawn (‘Lawn’ indicates too many colonies to accurately count (e.g., greater than 250 colonies on an agar plate))
CFU/mL (E. coli (ATCC BAA 1427) [2]; concentration 1.875 μg/mL): Lawn
Number of Colonies (E. coli (ATCC BAA 1427) [2]; [9]): Lawn (‘Lawn’ indicates too many colonies to accurately count (e.g., greater than 250 colonies on an agar plate))
CFU/mL (E. coli (ATCC BAA 1427) [2]; concentration 3.75 μg/mL): Lawn
Number of Colonies (E. coli (ATCC BAA 1427) [2]; [10]): Lawn (‘Lawn’ indicates too many colonies to accurately count (e.g., greater than 250 colonies on an agar plate))
CFU/mL (E. coli (ATCC BAA 1427) [2]; concentration 7.5 μg/mL): Lawn
Number of Colonies (E. coli (ATCC BAA 1427) [2]; [11]): Lawn (‘Lawn’ indicates too many colonies to accurately count (e.g., greater than 250 colonies on an agar plate))
CFU/mL (E. coli (ATCC BAA 1427) [2]; concentration 15 μg/mL): 0 CFU/mL
Number of Colonies (E. coli (ATCC BAA 1427) [2]; [12]): 0
CFU/mL (E. coli (ATCC BAA 1427) [2]; concentration 30 μg/mL): 0 CFU/mL
Number of Colonies (E. coli (ATCC BAA 1427) [2]; [13]): 0
CFU/mL (E. coli (ATCC BAA 1427) [2]; concentration 60 μg/mL): 0 CFU/mL
Number of Colonies (E. coli (ATCC BAA 1427) [2]; [14]): 0
MBC (defined as having less than 500 CFU/mL) (E. coli (ATCC BAA 1427) [2]; [15]): 15 µg/mL
CFU/mL (S. aureus (ATCC 6538) [3]; concentration 0.46875 μg/mL): Lawn
Number of Colonies (S. aureus (ATCC 6538) [3]; [7]): Lawn (‘Lawn’ indicates too many colonies to accurately count (e.g., greater than 250 colonies on an agar plate))
CFU/mL (S. aureus (ATCC 6538) [3]; concentration 0.9375 μg/mL): Lawn
Number of Colonies (S. aureus (ATCC 6538) [3]; [8]): Lawn (‘Lawn’ indicates too many colonies to accurately count (e.g., greater than 250 colonies on an agar plate))
CFU/mL (S. aureus (ATCC 6538) [3]; concentration 1.875 μg/mL): 1133.3 CFU/mL
Number of Colonies (S. aureus (ATCC 6538) [3]; [9]): 11.333
CFU/mL (S. aureus (ATCC 6538) [3]; concentration 3.75 μg/mL): 1500 CFU/mL
Number of Colonies (S. aureus (ATCC 6538) [3]; [10]): 15
CFU/mL (S. aureus (ATCC 6538) [3]; concentration 7.5 μg/mL): 33.333 CFU/mL
Number of Colonies (S. aureus (ATCC 6538) [3]; [11]): 0.333
CFU/mL (S. aureus (ATCC 6538) [3]; concentration 15 μg/mL): 0 CFU/mL
Number of Colonies (S. aureus (ATCC 6538) [3]; [12]): 0
CFU/mL (S. aureus (ATCC 6538) [3]; concentration 30 μg/mL): 0 CFU/mL
Number of Colonies (S. aureus (ATCC 6538) [3]; [13]): 0
CFU/mL (S. aureus (ATCC 6538) [3]; concentration 60 μg/mL): 0 CFU/mL
Number of Colonies (S. aureus (ATCC 6538) [3]; [14]): 0
MBC (defined as having less than 500 CFU/mL) (S. aureus (ATCC 6538) [3]; [15]): 7.5 µg/mL
Average Growth Inhibition (%) [4, 16]: 4%
Average Growth Inhibition (%) [4, 17]: 5%
Average Growth Inhibition (%) [4, 18]: 7%
Average Growth Inhibition (%) [4, 19]: 7%
Average Growth Inhibition (%) [4, 20]: 8%
Average Growth Inhibition (%) [4, 21]: 8%
Average Growth Inhibition (%) [4, 22]: 28%
Average Growth Inhibition (%) [4, 23]: 100%
MIC that inhibited greater than 90% growth [4, 15]: 60 µg/mL
Average Growth Inhibition (%) (E. coli (ATCC BAA 1427) [5]; [16]): 3%
Average Growth Inhibition (%) (E. coli (ATCC BAA 1427) [5]; [17]): 5%
Average Growth Inhibition (%) (E. coli (ATCC BAA 1427) [5]; [18]): 6%
Average Growth Inhibition (%) (E. coli (ATCC BAA 1427) [5]; [19]): 7%
Average Growth Inhibition (%) (E. coli (ATCC BAA 1427) [5]; [20]): 18%
Average Growth Inhibition (%) (E. coli (ATCC BAA 1427) [5]; [21]): 100%
Average Growth Inhibition (%) (E. coli (ATCC BAA 1427) [5]; [22]): 100%
Average Growth Inhibition (%) (E. coli (ATCC BAA 1427) [5]; [23]): 100%
MIC that inhibited greater than 90% growth (E. coli (ATCC BAA 1427) [5]; [15]): 15 µg/mL
Average Growth Inhibition (%) (S. aureus (ATCC 6538) [6]; [16]): −30%
Average Growth Inhibition (%) (S. aureus (ATCC 6538) [6]; [17]): 100%
Average Growth Inhibition (%) (S. aureus (ATCC 6538) [6]; [18]): 101%
Average Growth Inhibition (%) (S. aureus (ATCC 6538) [6]; [19]): 101%
Average Growth Inhibition (%) (S. aureus (ATCC 6538) [6]; [20]): 99%
Average Growth Inhibition (%) (S. aureus (ATCC 6538) [6]; [21]): 101%
Average Growth Inhibition (%) (S. aureus (ATCC 6538) [6]; [22]): 101%
Average Growth Inhibition (%) (S. aureus (ATCC 6538) [6]; [23]): 98%
MIC that inhibited greater than 90% growth (S. aureus (ATCC 6538) [6]; [15]): 0.9375 µg/mL
MIC of BZK Alone (S. aureus; alone): 0.9375 µg/mL
MIC of BZK in Presence of CHG (S. aureus; in presence of CHG): 0.469 µg/mL
MIC of BZK Alone (P. aeruginosa; alone): 60 µg/mL
MIC of BZK in Presence of CHG (P. aeruginosa; in presence of CHG): 7.5 µg/mL
MIC of BZK Alone (E. coli; alone): 15 µg/mL
MIC of BZK in Presence of CHG (E. coli; in presence of CHG): 0.2344 µg/mL

N=C(NCCCCCCNC(=N)NC(=N)Nc1ccc(Cl)cc1)NC(=N)Nc1ccc(Cl)cc1 [Chlorhexidine gluconate, 1-[amino-[6-[amino-[amino-(4-chlorophenyl)amino-methylidene]amino-methylidene]aminohexylimino]methyl]imino-N-(4-chlorophenyl)-methanediamine; (2R,3S,4R,5R)-2,3,4,5,6-pentahydroxyhexanoic acid.]
Number of Colonies [1, 24]: 0
Number of Colonies [1, 25]: no colonies
CFU/mL [1, 26]: 0 CFU/mL
Number of Colonies (E. coli (ATCC BAA 1427) [2]; [24]): 0
Number of Colonies (E. coli (ATCC BAA 1427) [2]; [25]): no colonies
CFU/mL (E. coli (ATCC BAA 1427) [2]; [26]): 0 CFU/mL
Number of Colonies (S. aureus (ATCC 6538) [3]; [24]): 0
Number of Colonies (S. aureus (ATCC 6538) [3]; [25]): no colonies
CFU/mL (S. aureus (ATCC 6538) [3]; [26]): 0 CFU/mL
inhibition at 250 µg/mL ([4]; Pseudomonas aeruginosa, ATCC15442, read-out: Average Growth Inhibition (%)): 81%
inhibition at 250 µg/mL (E. coli (ATCC BAA 1427) [5]; Escherichia coli, BAA1427, concentration 250 μg/mL (0.025% w/w), positive control): 63%
inhibition at 250 µg/mL (S. aureus (ATCC 6538) [6]; Staphylococcus aureus, ATCC6538, read-out: Average Growth Inhibition (%)): 121%
MIC (S. aureus; read-out: MIC of CHG Alone): 1.95 µg/mL
MIC (S. aureus; [27]): 0.977 µg/mL
MIC (P. aeruginosa; read-out: MIC of CHG Alone (μg/mL)): 40 µg/mL
MIC (P. aeruginosa; read-out: MIC of CHG in Presence of BZK (μg/mL)): 2.5 µg/mL
MIC (E. coli; read-out: MIC of CHG Alone): 8 µg/mL
MIC (E. coli; [27]): 4 µg/mL
